Data as given in publication PMC6412362 (2019).

Legend:
[1] = test system: 5GC (DNA, duplex) GCGCGCGCGC; test: UV-Vis titration; conditions: 100 mM KCl, 20 mM potassium phosphate; PBS 0.1 mM EDTA pH 6.8, 25 °C; 2 μM ligand; apparent
[2] = test system: 5GC (DNA, duplex) GCGCGCGCGC; test: G4-FID fluorescent intercalator displacement; conditions: 100 mM KCl, 20 mM potassium phosphate; PBS pH 6.8, 25 °C; thiazole orange displaced
[3] = test system: AG3(T2AG3)3 (DNA, G4) AGGGTTAGGGTTAGGGTTAGGG; test: G4-FID fluorescent intercalator displacement; conditions: 100 mM KCl, 20 mM potassium phosphate; PBS pH 6.8, 25 °C; thiazole orange displaced
[4] = test system: AG3(T2AG3)3 (DNA, G4) AGGGTTAGGGTTAGGGTTAGGG; test: UV-Vis titration; conditions: 100 mM KCl, 20 mM potassium phosphate; PBS 0.1 mM EDTA pH 6.8, 25 °C; 2 μM ligand; apparent
[5] = test system: (G4T4G4)2 (DNA, G4) GGGGTTTTGGGG; test: UV-Vis titration; conditions: 100 mM KCl, 20 mM potassium phosphate, PBS pH 6.8, 25 °C
[6] = test system: (T2G5T)4 (DNA, G4) TTGGGGGT; test: G4-FID fluorescent intercalator displacement; conditions: 100 mM KCl, 20 mM potassium phosphate; PBS pH 6.8, 25 °C; thiazole orange displaced
[7] = test system: AG3(T2AG3)3 (DNA, G4) AGGGTTAGGGTTAGGGTTAGGG; test: fluorimetric titration, ligand fluorescence, Hill fit; conditions: 100 mM KCl, 20 mM potassium phosphate; 25 °C; 1 μM ligand, DNA 0-3 μM; apparent; Hill n ≈ 2
[8] = test system: AG3(T2AG3)3 (DNA, G4) AGGGTTAGGGTTAGGGTTAGGG; test: CD melting at 290 nm; conditions: 100 mM KCl, 20 mM potassium phosphate; PBS pH 6.8; 6 μM as printed for solutions; derived from two Tm

KD [1]	DC50 [2] [nM]	DC50 [3] [nM]	KD [4]	binding ([5]; 2 μM ligand, red shift 17 nm)	DC50 [6] [nM]	KD [7] [nM]	ΔTm [8] [°C]	binding ([5]; red shift 13 nm)	binding ([5]; 2 μM ligand, red shift 15 nm)	SMILES
(1.28 ± 0.17) × 10^−5 M	1930 ± 480	1950 ± 260	(9.58 ± 0.09) × 10^−6 M	yes	1840 ± 30	540	–	–	–	C[n+]1ccc(Sc2cc3c(cc2Sc2cc[n+](C)cc2)-c2nc-3nc3nc(nc4[n-]c(nc5[n-]c(n2)c2cc(Sc6cc[n+](C)cc6)c(Sc6cc[n+](C)cc6)cc52)c2cc(Sc5cc[n+](C)cc5)c(Sc5cc[n+](C)cc5)cc42)-c2cc(Sc4cc[n+](C)cc4)c(Sc4cc[n+](C)cc4)cc2-3)cc1.[Zn+2]
–	940 ± 200	1070 ± 90	–	–	1170 ± 200	290	7.0	yes	–	C[n+]1ccc(-c2c3nc(c(-c4cc[n+](C)cc4)c4ccc([nH]4)c(-c4cc[n+](C)cc4)c4nc(c(-c5cc[n+](C)cc5)c5ccc2[nH]5)C=C4)C=C3)cc1
(4.74 ± 0.13) × 10^−4 M	1300 ± 210	1040 ± 280	(7.61 ± 0.11) × 10^−8 M	–	1080 ± 80	74	11.8	–	yes	COc1cc[n+](-c2cc3c(cc2-[n+]2ccc(OC)cc2)-c2nc-3nc3nc(nc4[n-]c(nc5[n-]c(n2)c2cc(-[n+]6ccc(OC)cc6)c(-[n+]6ccc(OC)cc6)cc52)c2cc(-[n+]5ccc(OC)cc5)c(-[n+]5ccc(OC)cc5)cc42)-c2cc(-[n+]4ccc(OC)cc4)c(-[n+]4ccc(OC)cc4)cc2-3)cc1.[Zn+2]
